Measured values reported in patent US20240132463A1, “SUBSTITUTED N-(2-(2,6-DIOXOPIPERIDIN-3-YL)-1,3-DIOXOISOINDOLIN-5-YL)ARYLSULFONAMIDE ANALOGS AS MODULATORS OF CEREBLON PROTEIN” (ST. JUDE CHILDREN'S RESEARCH HOSPITAL, INC., priority 2020, published 2024).
Read-outs that look alike come from different tables or passages of the source.

Experiments:
GSPT1 HiBiT tag protein = GSPT1 HiBiT tag protein (Homo sapiens (Human), UniProt P15170+Q96SW2); assay: hGSPT1 HiBiT assay; assay type: cell-based; conditions: HEK293 hGSPT1 HiBiT cells, 4 hrs incubation; read-out: GSPT1 HiBit EC50
Chain of GSPT1 HiBiT tag protein (P15170 whole entry): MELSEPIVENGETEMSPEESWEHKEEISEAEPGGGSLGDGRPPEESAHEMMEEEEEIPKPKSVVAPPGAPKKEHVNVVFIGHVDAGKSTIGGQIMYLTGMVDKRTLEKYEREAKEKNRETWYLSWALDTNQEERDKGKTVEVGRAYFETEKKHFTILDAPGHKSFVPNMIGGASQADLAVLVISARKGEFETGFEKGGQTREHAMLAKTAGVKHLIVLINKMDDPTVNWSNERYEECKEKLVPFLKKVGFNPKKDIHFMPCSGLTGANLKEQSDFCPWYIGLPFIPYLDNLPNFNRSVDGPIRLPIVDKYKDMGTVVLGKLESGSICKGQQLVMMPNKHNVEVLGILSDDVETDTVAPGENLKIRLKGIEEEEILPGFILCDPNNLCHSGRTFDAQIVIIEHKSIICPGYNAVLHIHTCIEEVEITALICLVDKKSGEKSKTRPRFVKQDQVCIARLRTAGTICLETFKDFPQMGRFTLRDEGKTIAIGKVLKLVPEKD
Chain of GSPT1 HiBiT tag protein (Q96SW2 whole entry): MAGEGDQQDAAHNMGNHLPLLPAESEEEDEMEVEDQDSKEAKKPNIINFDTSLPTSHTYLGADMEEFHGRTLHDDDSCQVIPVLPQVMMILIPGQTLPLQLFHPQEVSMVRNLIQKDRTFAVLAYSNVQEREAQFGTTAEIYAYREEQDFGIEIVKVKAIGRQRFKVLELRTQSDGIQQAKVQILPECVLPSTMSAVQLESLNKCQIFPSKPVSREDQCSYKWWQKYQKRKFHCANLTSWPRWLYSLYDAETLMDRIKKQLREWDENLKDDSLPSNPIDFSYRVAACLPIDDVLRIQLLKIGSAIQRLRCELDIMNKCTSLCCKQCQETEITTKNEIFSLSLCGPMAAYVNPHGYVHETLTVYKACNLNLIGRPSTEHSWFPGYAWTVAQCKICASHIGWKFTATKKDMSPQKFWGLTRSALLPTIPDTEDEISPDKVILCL
Chain of GSPT1 HiBiT tag protein (Q16531 whole entry partner): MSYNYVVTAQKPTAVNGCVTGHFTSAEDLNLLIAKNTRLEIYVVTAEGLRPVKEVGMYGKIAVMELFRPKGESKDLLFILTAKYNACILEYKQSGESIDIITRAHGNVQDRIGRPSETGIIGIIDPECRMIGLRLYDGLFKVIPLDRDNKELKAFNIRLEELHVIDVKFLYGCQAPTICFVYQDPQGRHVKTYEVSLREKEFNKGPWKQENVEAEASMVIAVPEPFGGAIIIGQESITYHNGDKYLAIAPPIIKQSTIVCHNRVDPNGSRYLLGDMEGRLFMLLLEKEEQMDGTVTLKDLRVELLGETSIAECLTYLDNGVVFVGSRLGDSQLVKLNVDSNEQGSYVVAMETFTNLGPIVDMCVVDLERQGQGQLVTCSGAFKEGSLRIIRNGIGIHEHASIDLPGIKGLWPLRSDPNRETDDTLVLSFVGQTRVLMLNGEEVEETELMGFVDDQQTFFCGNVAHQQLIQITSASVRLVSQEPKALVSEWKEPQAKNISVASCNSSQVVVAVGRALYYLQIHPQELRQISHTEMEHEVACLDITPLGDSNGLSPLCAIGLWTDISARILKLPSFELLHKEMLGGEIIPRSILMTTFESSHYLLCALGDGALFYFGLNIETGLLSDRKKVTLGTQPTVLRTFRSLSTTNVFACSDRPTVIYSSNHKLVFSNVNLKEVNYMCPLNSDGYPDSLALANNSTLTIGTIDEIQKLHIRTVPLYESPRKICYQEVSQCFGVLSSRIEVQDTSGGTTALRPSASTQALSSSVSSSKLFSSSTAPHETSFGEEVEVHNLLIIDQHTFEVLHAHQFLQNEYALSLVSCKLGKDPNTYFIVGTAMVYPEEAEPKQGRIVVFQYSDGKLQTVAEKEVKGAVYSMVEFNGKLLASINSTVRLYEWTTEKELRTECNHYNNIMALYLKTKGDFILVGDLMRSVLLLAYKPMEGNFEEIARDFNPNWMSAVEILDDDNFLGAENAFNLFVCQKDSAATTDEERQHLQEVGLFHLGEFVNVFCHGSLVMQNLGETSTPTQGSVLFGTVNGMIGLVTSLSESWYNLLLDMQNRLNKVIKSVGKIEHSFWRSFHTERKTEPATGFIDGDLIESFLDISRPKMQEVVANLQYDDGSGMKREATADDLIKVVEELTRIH
Protocol: hGSPT1 HiBiT cell line. HEK293_hGSPT1_HiBiT tagged cells were generated using CRISPR-Cas12a technology. Briefly, ˜400,000 HEK293 cells were transiently co-transfecting with precomplexed ribonuclear proteins (RNPs) consisting of […] of crRNA (IDT), 62 pmol of Cas12a protein (IDT), 3 ug of ssODN donor (IDT; AltR™ modifications), 78 pmol of electroporation enhancer (IDT), and 200 ng of pMaxGFP (Lonza). The transfection was performed via nucleofection (Lonza, 4D-Nucleofector™ X-unit) using solution P3 and program CM-130 in a small (20 ul) cuvette according to the manufacturer's recommended protocol. Five days post-nucleofection, cells were single cell sorted for GFP+(transfected) cells by FACs in 96-well plates and clonally selected. Clones were screened and verified for the desired modification via targeted deep sequencing using gene specific primers with partial Illumina adapter overhangs as previously described.^58 In brief, clonal cell pellets were harvested, lysed and used to generate gene specific amplicons with partial Illumina adapters in PCR #1. Amplicons were indexed in PCR #2 and pooled with other targeted amplicons for other loci to create sequence diversity. Additionally, 10% PhiX Sequencing Control V3 (Illumina) was added to the pooled amplicon library prior to running the sample on an Miseq Sequencer System (Illumina) to generate paired 2×250 bp reads. […] Editing construct sequences and screening primers are listed below in Table 4.
hGSPT1 HiBiT assay. […] After 4 hrs incubation, the level of GSPT1 HiBiT tag protein was evaluated using Nano-Glo® HiBiT Lytic Detection System (Promega) according to the manufacturer's instruction.

6×His-CRBN-DDB1 protein = 6×His-CRBN-DDB1 protein (Homo sapiens (Human), UniProt Q96SW2); assay: CRBN fluorescence polarization assay; assay type: binding
Chain of 6×His-CRBN-DDB1 protein (Q96SW2 whole entry): as the sequence (Q96SW2 whole entry) above
Chain of 6×His-CRBN-DDB1 protein (Q16531 whole entry partner): as the sequence (Q16531 whole entry partner) above
Protocol: 6×His-CRBN-DDB1 protein (200 nM) and Cy5-O-Len probe (30 nM) were combined in 20 mM HEPES pH 7, 150 mM NaCl, 0.005% Tween-20 assay buffer. […] The plates were incubated in the dark for 1 hour at room temperature and then read on an Envision plate reader (PerkinElmer, Massachusetts, USA).

MDCKII-MDR1 cells = assay: MDCKII-MDR1 permeability assay; assay type: in vitro ADME; conditions: permeability in MDCK-MDR1 cells
Protocol: High throughput […]1 permeability was performed in the Transwell® 0.4 μm polycarbonate membrane 96-well system with modified methods (Refs. 38-39). […]1 cells were maintained at 37° C. in a humidified incubator with an atmosphere of 5% CO2. The cells were cultured in 75 cm^2 flasks with Dulbecco's Modified Eagle's Medium (DMEM) containing 10% fetal bovine serum (FBS), 1% non-essential amino acids (NEAA), 100 units/ml of penicillin, and 100 μg/ml of streptomycin. The […]1 cells were seeded onto inserts at a density of 2×10^4 and 1×10^4 cells/insert separately. The medium in the wells was exchanged each other day, and the trans epithelial electrical resistance (TEER) value was measured using an epithelial volt-ohm meter (Millipore, Billerica, Massachusetts). […] For transport experiments, each cultured monolayer on the 96-well plate was washed twice with a transport buffer (HBSS/25 mM HEPES, pH 7.4). The permeability assay was initiated by the addition of each compound solution (10 μmol/L) into inserts (apical side, A) or receivers (basolateral side, B). The MDCKII-MDR1 cell monolayers were incubated for 1 hour at 37° C. Fractions were collected from receivers (if apical to basal permeability) or inserts (if basal to apical permeability), and concentrations were assessed by UPLC/MS (Waters; Milford, MA). All compounds were tested in triplicates. The A→B (or B→A) apparent permeability coefficients (Papp) of each compound were calculated using the equation, Papp=dQ/dt×1/AC0, where dQ/dt equals the flux of a drug across the monolayer, A equals the total insert well surface area, and C0 is the initial concentration of substrate in the donor compartment. The efflux ratio was determined by dividing the Papp in the B-A direction by the Papp in the A-B direction.

[1] = cereblon binding, class symbols, read-out: CRBN FP IC50

Row | Compound | DC50 (GSPT1 HiBiT tag protein) [µM] | IC50 (6×His-CRBN-DDB1 protein; [1]) [nM] | Papp (MDCKII-MDR1 cells) [nm/s] | IC50 (6×His-CRBN-DDB1 protein; fluorescence polarization, Cy5-O-Len probe, read-out: CRBN IC50) [nM]
1 | Cc1ccccc1CS(=O)(=O)Nc1ccc2c(c1)C(=O)N(C1CCC(=O)NC1=O)C2=O (stereo not drawn) [Compound 90, N-(2-(2,6-dioxopiperidin-3-yl)-1,3-dioxoisoindolin-5-yl)-1-(o-tolyt)methanesulfonamide] | > 10 | 1000 to 10000 |  | 
2 | O=C1CCC(N2C(=O)c3ccc(NS(=O)(=O)c4ccccc4F)cc3C2=O)C(=O)N1 (stereo not drawn) [Compound 82, N-(2-(2,6-dioxopiperidin-3-yl)-1,3-dioxoisoindolin-5-yl)-2-fluorobenzenesulfonamide] | > 10 | < 1000 |  | 
3 | Cc1ccc(S(=O)(=O)Nc2ccc3c(c2)C(=O)N(C2CCC(=O)NC2=O)C3=O)cc1 (stereo not drawn) [Compound 21, N-(2-(2,6-dioxopiperidin-3-yl)-1,3-dioxoisoindolin-5-yl)-4-methylbenzenesulfonamide] | > 10 | 1000 to 10000 |  | 
4 | O=C1CCC(N2C(=O)c3ccc(NS(=O)(=O)c4ccc(F)c(F)c4)cc3C2=O)C(=O)N1 (stereo not drawn) [Compound 76] | > 10 | 1000 to 10000 |  | 
5 | O=C1CCC(N2C(=O)c3ccc(NS(=O)(=O)c4ccc(F)c(Cl)c4)cc3C2=O)C(=O)N1 (stereo not drawn) [Compound 17, 3-chloro-N-(2-(2,6-dioxopiperidin-3-yl)-1,3-dioxoisoindolin-5-yl)-4-fluorobenzenesulfonamide] | > 10 | < 1000 |  | 
6 | COc1ccc(Br)cc1S(=O)(=O)Nc1ccc2c(c1)C(=O)N(C1CCC(=O)NC1=O)C2=O (stereo not drawn) [Compound 78, 5-bromo-N-(2-(2,6-dioxopiperidin-3-yl)-1,3-dioxoisoindolin-5-yl)-2-methoxybenzenesulfonamide] | > 10 | 1000 to 10000 |  | 
7 | O=C1CCC(N2C(=O)c3ccc(NS(=O)(=O)c4ccc5ccccc5c4)cc3C2=O)C(=O)N1 (stereo not drawn) [Compound 63, N-(2-(2,6-dioxopiperidin-3-yl)-1,3-dioxoisoindolin-5-yl)naphthalene-2-sulfonamide] | > 10 | < 1000 |  | 
8 | O=C1CCC(N2C(=O)c3ccc(NS(=O)(=O)c4cccc(Cl)c4)cc3C2=O)C(=O)N1 (stereo not drawn) [Compound 95, 3-chloro-N-(2-(2,6-dioxopiperidin-3-yl)-1,3-dioxoisoindolin-5-yl)benzenesulfonamide] | > 10 | < 1000 |  | 
9 | O=C1CCC(N2C(=O)c3ccc(NS(=O)(=O)Cc4ccc(F)cc4)cc3C2=O)C(=O)N1 (stereo not drawn) [Compound 89, N-(2-(2,6-dioxopiperidin-3-yl)-1,3-dioxoisoindolin-5-yl)-1-(4-fluorophenyl)methanesulfonamide] | > 10 | < 1000 |  | 
10 | Cc1ccc(S(=O)(=O)Nc2ccc3c(c2)C(=O)N(C2CCC(=O)NC2=O)C3=O)cc1Cl (stereo not drawn) [Compound 7, 3-chloro-N-(2-(2,6-dioxopiperidin-3-yl)-1,3-dioxoisoindolin-5-yl)-4-methylbenzenesulfonamide] | > 10 | < 1000 | 46 | 13
11 | O=C1CCC(N2C(=O)c3ccc(NS(=O)(=O)c4cccs4)cc3C2=O)C(=O)N1 (stereo not drawn) [Compound 18, N-(2-(2,6-dioxopiperidin-3-yl)-1,3-dioxoisoindolin-5-yl)thiophene-2-sulfonamide] | > 10 | < 1000 |  | 
12 | O=C1CCC(N2C(=O)c3ccc(NS(=O)(=O)Cc4ccccc4)cc3C2=O)C(=O)N1 (stereo not drawn) [Compound 9, N-(2-(2,6-dioxopiperidin-3-yl)-1,3-dioxoisoindolin-5-yl)-1-phenylmethanesulfonamide] | > 10 | 1000 to 10000 |  | 
13 | O=C1CCC(N2C(=O)c3ccc(NS(=O)(=O)c4ccc(Cl)cc4)cc3C2=O)C(=O)N1 (stereo not drawn) [Compound 16, 4-chloro-N-(2-(2,6-dioxopiperidin-3-yl)-1,3-dioxoisoindolin-5-yl)benzenesulfonamide] | > 10 | < 1000 |  | 
14 | O=C1CCC(N2C(=O)c3ccc(NS(=O)(=O)c4ccc(Cl)c(Cl)c4)cc3C2=O)C(=O)N1 (stereo not drawn) [Compound 71, 3,4-dichloro-N-(2-(2,6-dioxopiperidin-3-yl)-1,3-dioxoisoindolin-5-yl)benzenesulfonamide] | > 10 | < 1000 |  | 
15 | Cc1ccc(F)c(S(=O)(=O)Nc2ccc3c(c2)C(=O)N(C2CCC(=O)NC2=O)C3=O)c1 (stereo not drawn) [Compound 10, N-(2-(2,6-dioxopiperidin-3-yl)-1,3-dioxoisoindolin-5-yl)-2-fluoro-5-methylbenzenesulfonamide] | > 10 | < 1000 |  | 
16 | O=C1CCC(N2C(=O)c3ccc(NS(=O)(=O)c4ccsc4)cc3C2=O)C(=O)N1 (stereo not drawn) [Compound 83, N-(2-(2,6-dioxopiperidin-3-yl)-1,3-dioxoisoindolin-5-yl)thiophene-3-sulfonamide] | > 10 | < 1000 |  | 
17 | O=C1CCC(N2C(=O)c3ccc(NS(=O)(=O)c4ccccc4Br)cc3C2=O)C(=O)N1 (stereo not drawn) [Compound 98, 2-bromo-N-(2-(2,6-dioxopiperidin-3-yl)-1,3-dioxoisoindolin-5-yl)benzenesulfonamide] | < 1 | < 1000 |  | 
18 | O=C1CCC(N2C(=O)c3ccc(NS(=O)(=O)c4cccc(F)c4)cc3C2=O)C(=O)N1 (stereo not drawn) [Compound 72, N-(2-(2,6-dioxopiperidin-3-yl)-1,3-dioxoisoindolin-5-yl)-3-fluorobenzenesulfonamide] | > 10 | < 1000 |  | 
19 | O=C1CCC(N2C(=O)c3ccc(NS(=O)(=O)c4ccccc4-c4ccccc4)cc3C2=O)C(=O)N1 (stereo not drawn) [Compound 81, N-(2-(2,6-dioxopiperidin-3-yl)-1,3-dioxoisoindolin-5-yl)-[1,1′-biphenyl]-2-sulfonamide] | > 10 | < 1000 |  | 
20 | Cc1ccc(F)cc1S(=O)(=O)Nc1ccc2c(c1)C(=O)N(C1CCC(=O)NC1=O)C2=O (stereo not drawn) [Compound 75, N-(2-(2,6-dioxopiperidin-3-yl)-1,3-dioxoisoindolin-5-yl)-5-fluoro-2-methylbenzenesulfonamide] | > 10 | < 1000 |  | 
21 | O=C1CCC(N2C(=O)c3ccc(NS(=O)(=O)c4cc5ccccc5s4)cc3C2=O)C(=O)N1 (stereo not drawn) [Compound 87, N-(2-(2,6-dioxopiperidin-3-yl)-1,3-dioxoisoindolin-5-yl)benzo[b]thiophene-2-sulfonamide] | > 10 | < 1000 |  | 
22 | O=C1CCC(N2C(=O)c3ccc(NS(=O)(=O)c4ccccc4C(F)(F)F)cc3C2=O)C(=O)N1 (stereo not drawn) [Compound 99, N-(2-(2,6-dioxopiperidin-3-yl)-1,3-dioxoisoindolin-5-yl)-2-(trifluoromethyl)benzenesulfonamide] | < 1 | < 1000 |  | 
23 | Cc1ccccc1S(=O)(=O)Nc1ccc2c(c1)C(=O)N(C1CCC(=O)NC1=O)C2=O (stereo not drawn) [Compound 15, N-(2-(2,6-dioxopiperidin-3-yl)-1,3-dioxoisoindolin-5-yl)-2-methylbenzenesulfonamide] | 1 to 10 | < 1000 |  | 
